{"source": "patent US11197831B2", "about": "“Compositions comprising at least one dispersed active principle and lipid microcapsules” (GALDERMA RESEARCH & DEVELOPMENT, priority 2015, dated 2021)", "key": {"[1]": {"tested_on": "Whole human abdominal skin", "assay": "In vitro skin penetration of dispersed Compound A2 (Franz cells, LC/MS/MS)", "type": "in vitro ADME", "details": "irrespective of the formulation tested; 24 h", "experimental": "In this study, the formulations were applied for 24 hours to the skin surface. At the end of the application, Compound A2 is quantified in the various skin compartments: stratum corneum, epidermis, dermis, and receiving liquid according to a validated bioanalysis method performed by positive electrospray ionization tandem mass spectrometry, using a Xevo system (Waters). The quantification limit for Compound A2 is 2 ng/mL. The LC/MS/MS conditions developed made it possible to detect up to 0.1% of the dose applied in each compartment (dose not absorbed, stratum, epidermis, dermis, and receiving liquid).\nThe results presented in FIG. 5 show the amount penetrated as a percentage of the dose applied (% of the dose applied) according to the various skin compartments."}, "[2]": {"assay": "Stability of the active ingredient in fatty substances and solvents (HPLC-UV)", "type": "physicochemical", "experimental": "(§1) The solubility and the stability of the active ingredient were evaluated by liquid chromatography coupled to a UV detector (HPLC-UV)."}, "[3]": {"assay": "Maximum or visual solubility of the active ingredient in fatty substances and solvents (HPLC-UV)", "type": "physicochemical", "experimental": "as §1\nThe solubility of the active ingredient was evaluated by liquid chromatography coupled to a UV detector (HPLC-UV)."}, "[4]": {"tested_on": "Whole human abdominal skin", "assay": "In vitro skin penetration kinetics of dispersed Trifarotene (Franz cells, LC/MS/MS)", "type": "in vitro ADME", "details": "irrespective of the formulation tested; 24 h", "experimental": "In this study, the formulations were applied for 24 hours to the skin surface. After the application, Trifarotene is quantified at several points in time (1 h, 3 h, 6 h, 8 h and 24 h) in the various skin compartments: stratum corneum, epidermis, dermis, and receiving liquid according to a validated bioanalysis method performed by positive electrospray ionization tandem mass spectrometry, using a Xevo system (Waters). The quantification limit for Trifarotene is 0.01 ng/mL. […] [table] The results presented in FIG. 1 show the amount penetrated as a percentage of the dose applied (% of the dose applied) according to the various skin compartments after 24 h of exposure. The total amount penetrated corresponds to the amount of active ingredient assayed in the various skin compartments (stratum corneum, epidermis, dermis) and the receiving liquid. FIGS. 3 and 4 present the areas under the curve (AUCs) calculated respectively after 8 hours, corresponding to the shortest exposure times, and after 24 hours, corresponding to the longest exposure times. The AUCs were calculated for each kinetics (n=6). They were then statistically compared by one-way ANOVA followed by Dunnett's test."}, "[5]": {"details": "in Octyldodecanol (Eutanol ® G)"}, "[6]": {"details": "in Propylene glycol dicaprylate/dicaprate (Myritol ® PC)"}, "[7]": {"details": "in Capric/caprylic acid triglycerides (Miglyol ® 812N)"}, "[8]": {"details": "in Diisopropyl adipate (Schercemol Dia Ester)"}, "[9]": {"details": "in PPG-15 stearyl ether (Arlamol PS11E-LQ)"}}}
{"molecule": "C[C@H](NC(=O)N1CCC(c2ccc(O)cc2O)CC1)c1ccccc1", "note": "[Compound A2, (S)-4-(2,4-dihydroxyphenyl)-N-(1-phenylethyl)piperidine-1-carboxamide]", "values": [{"measurement": "skin distribution", "setting": "[1]", "value": "essentially located in the stratum corneum and the epidermis, and more moderately in the dermis"}, {"measurement": "Stability (3M) (AT/40° C.)", "setting": "[2]; 3M, AT/40° C., in Diethylene glycol monoethyl ether (Transcutol HP), ** Appearance of coloring at AT and at 40° C.", "value": "Stable **"}, {"measurement": "Maximum or visual* solubility (% w/w) (AT)", "setting": "[3]; in Diethylene glycol monoethyl ether (Transcutol HP)", "value": 13.9, "unit": "% w/w"}, {"measurement": "Maximum or visual* solubility (% w/w) (AT)", "setting": "[3]; visual*, in Capric/caprylic acid triglycerides (Miglyol ® 812N)", "value": "<0.1* % w/w"}, {"measurement": "Maximum or visual* solubility (% w/w) (AT)", "setting": "[3]; visual*, in Diisopropyl adipate (Schercemol Dia Ester)", "value": "<1.0* % w/w"}, {"measurement": "Maximum or visual* solubility (% w/w) (AT)", "setting": "[3]; visual*, in Dimethyl capramide (Spectrasolv DMDA)", "value": "20-30* % w/w"}, {"measurement": "Maximum or visual* solubility (% w/w) (AT)", "setting": "[3]; visual*, in PPG-15 stearyl ether (Arlamol PS11E-LQ)", "value": "<1.0* % w/w"}]}
{"molecule": "CC(C)(C)c1cc(-c2cc(-c3ccc(C(=O)O)cc3)ccc2OCCO)ccc1N1CCCC1", "note": "[Trifarotene]", "values": [{"measurement": "skin distribution", "setting": "[4]", "value": "essentially located in the stratum corneum and the epidermis, and more moderately in the dermis"}, {"measurement": "Stability", "setting": "[2]; AT/40° C., in Capric/caprylic acid triglycerides (Miglyol ® 812N)", "value": 6, "unit": "months"}, {"measurement": "Stability", "setting": "[2]; AT/40° C., in Diisopropyl adipate (Schercemol Dia Ester)", "value": 6, "unit": "months"}, {"measurement": "Stability", "setting": "[2]; AT/40° C., in Macrogol oleate (Labrafil ® M1944CS)", "value": 6, "unit": "months"}, {"measurement": "Stability", "setting": "[2]; AT/40° C., in PPG-15 stearyl ether (Arlamol PS11E-LQ)", "value": 6, "unit": "months"}, {"measurement": "Stability", "setting": "[2]; AT/40° C., in Propylene glycol monocaprylate (Capryol ® 90)", "value": 6, "unit": "months"}, {"measurement": "Stability", "setting": "[2]; AT/40° C., in Propylene glycol monolaurate (Lauroglycol ® FCC)", "value": 6, "unit": "months"}, {"measurement": "Stability", "setting": "[2]; AT/40° C., in Sweet almond oil", "value": 6, "unit": "months"}, {"measurement": "Stability", "setting": "[2]; [5]", "value": "Unstable"}, {"measurement": "Stability", "setting": "[2]; [6]", "value": "Unstable"}, {"measurement": "Maximum solubility (% w/w) (AT)", "setting": "[3]; in Alkyl (C12-15) benzoate (Crodamol AB)", "value": 0.026, "unit": "% w/w"}, {"measurement": "Maximum solubility (% w/w) (AT)", "setting": "[3]; [7]", "value": 0.019, "unit": "% w/w"}, {"measurement": "Maximum solubility (% w/w) (AT)", "setting": "[3]; [8]", "value": 0.297, "unit": "% w/w"}, {"measurement": "Maximum solubility (% w/w) (AT)", "setting": "[3]; in Macrogol oleate (Labrafil ® M1944CS)", "value": 0.156, "unit": "% w/w"}, {"measurement": "Maximum solubility (% w/w) (AT)", "setting": "[3]; in Mineral oil", "value": 0.0001, "unit": "% w/w"}, {"measurement": "Maximum solubility (% w/w) (AT)", "setting": "[3]; [5]", "value": 0.137, "unit": "% w/w"}, {"measurement": "Maximum solubility (% w/w) (AT)", "setting": "[3]; [9]", "value": 0.292, "unit": "% w/w"}, {"measurement": "Maximum solubility (% w/w) (AT)", "setting": "[3]; [6]", "value": 0.069, "unit": "% w/w"}, {"measurement": "Maximum solubility (% w/w) (AT)", "setting": "[3]; in Propylene glycol monocaprylate (Capryol ® 90)", "value": 0.802, "unit": "% w/w"}, {"measurement": "Maximum solubility (% w/w) (AT)", "setting": "[3]; in Propylene glycol monolaurate (Lauroglycol ® FCC)", "value": 0.296, "unit": "% w/w"}, {"measurement": "Maximum solubility (% w/w) (AT)", "setting": "[3]; in Sweet almond oil", "value": 0.011, "unit": "% w/w"}]}
{"molecule": "Cc1cc(COc2ccc(S(=O)(=O)NC[C@@H](C(=O)NO)N3CCN(S(=O)(=O)C(C)C)CC3)cc2)c2ccccc2n1", "note": "[Compound A3, (S)—N-hydroxy-3-[4-(2-methyl-quinolin-4-ylmethoxy)-benzenesulfonylamino]-2-[4-(propane-2-sulfonyl)-piperazin-1-yl]-propionamide]", "values": [{"measurement": "Maximum or visual* solubility (% w/w) (AT)", "setting": "[3]; in 10/90% Dimethyl sulfoxide/C12-15 alkyl lactate", "value": 0.12, "unit": "% w/w"}, {"measurement": "Maximum or visual* solubility (% w/w) (AT)", "setting": "[3]; in 10/90% Dimethyl sulfoxide/Diisopropyl adipate", "value": 0.38, "unit": "% w/w"}, {"measurement": "Maximum or visual* solubility (% w/w) (AT)", "setting": "[3]; in 10/90% Dimethyl sulfoxide/PPG-15 stearyl ether", "value": 0.07, "unit": "% w/w"}, {"measurement": "Maximum or visual* solubility (% w/w) (AT)", "setting": "[3]; in 20/80% Dimethyl sulfoxide/C12-15 alkyl lactate", "value": 0.74, "unit": "% w/w"}, {"measurement": "Maximum or visual* solubility (% w/w) (AT)", "setting": "[3]; in 20/80% Dimethyl sulfoxide/Schercemol Dia Ester", "value": 3.15, "unit": "% w/w"}, {"measurement": "Maximum or visual* solubility (% w/w) (AT)", "setting": "[3]; in C12-15 alkyl lactate (Ceraphyl 41)", "value": 0.04, "unit": "% w/w"}, {"measurement": "Maximum or visual* solubility (% w/w) (AT)", "setting": "[3]; [7]", "value": "<detection limit"}, {"measurement": "Maximum or visual* solubility (% w/w) (AT)", "setting": "[3]; [8]", "value": 0.02, "unit": "% w/w"}, {"measurement": "Maximum or visual* solubility (% w/w) (AT)", "setting": "[3]; [9]", "value": 0.01, "unit": "% w/w"}, {"measurement": "Maximum or visual* solubility (% w/w) (AT)", "setting": "[3]; visual*, in Dimethyl sulfoxide (Procipient DMSO)", "value": ">20", "unit": "%* % w/w"}]}
